Tested on: mouse MC3T3 H1 osteoblast cultures
Assay: Cell adhesion test: adhesion of osteoblast cultures in vitro to RGD peptide-coated material surfaces
Format: cell-based
Conditions: 50,000 cells/cm^2 inoculated, serum-free medium, 37°/95% atmospheric humidity, one hour, adhered cells/inoculated cells x 100
Procedure: Example of Cell Adhesion Test
The adhesion of mouse MC3T3 H1 osteoblast cultures in vitro to RGD peptide-coated material surfaces was investigated. In the course of this, 50,000 cells/cm^2 were inoculated and, after incubation in serum-free medium at 37°/95% atmospheric humidity for one hour, the proportion of adherent cells was determined.
Cell adhesion rate [%]=adhered cells/inoculated cells x 100

Substance	cell adhesion rate [%]
cyclo-(Arg-Gly-Asp-D-Phe-Lys(N^ε—CO—CH2—O—CH2CH2—O—CH2CH2—NH—CO—(CH2)5—NH—CO—CH═CH2))	109.0
cyclo-(Arg-Gly-Asp-D-Phe-Lys(N^ε—CO—(CH2)5—NH—CO—(CH2)5—NH—CO—CH═CH2))	92.4
cyclo-(Arg-Gly-Asp-D-Phe-Lys(N^ε—(CO—CH2—O—CH2CH2—O—CH2CH2—NH)2—CO—(CH2)5—NH—CO—CH═CH2))	110.5
cyclo-(Arg-Gly-Asp-D-Phe-Lys(N^ε—CO—(CH2)5—NH—CO—CH═CH2))	11.3
cyclo-(Arg-Gly-Asp-D-Phe-Lys(N^ε—CO—CH2CH2CO—NH—CH2CH2—SH))	86.2

— patent US20020198142A1, “Cyclopeptide derivatives” (Merck Patent GmbH, priority 1997, published 2002)
